The values that follow come from patent US20260356860A1, “2-SUBSTITUTED 3,4A,5,7,8,8A-HEXAHYDRO-4H-THIOPYRANO[4,3-DJPYRIMIDIN-4-ONES FOR WOUND TREATMENT” (priority 2022, published 2026).

As usually defined, the IC50 is the midpoint of a concentration-inhibition curve. A higher IC50 goes with a need for much substance.

Several values for one entry are separate records, joined by “and”; a condition that tells them apart may be missing. Identical values can stand only once.

One assay has as its target T1, Tankyrase 2 (TNKS2) (Homo sapiens, UniProt Q9H2K2).
T1 sequence (Q9H2K2 1-1166): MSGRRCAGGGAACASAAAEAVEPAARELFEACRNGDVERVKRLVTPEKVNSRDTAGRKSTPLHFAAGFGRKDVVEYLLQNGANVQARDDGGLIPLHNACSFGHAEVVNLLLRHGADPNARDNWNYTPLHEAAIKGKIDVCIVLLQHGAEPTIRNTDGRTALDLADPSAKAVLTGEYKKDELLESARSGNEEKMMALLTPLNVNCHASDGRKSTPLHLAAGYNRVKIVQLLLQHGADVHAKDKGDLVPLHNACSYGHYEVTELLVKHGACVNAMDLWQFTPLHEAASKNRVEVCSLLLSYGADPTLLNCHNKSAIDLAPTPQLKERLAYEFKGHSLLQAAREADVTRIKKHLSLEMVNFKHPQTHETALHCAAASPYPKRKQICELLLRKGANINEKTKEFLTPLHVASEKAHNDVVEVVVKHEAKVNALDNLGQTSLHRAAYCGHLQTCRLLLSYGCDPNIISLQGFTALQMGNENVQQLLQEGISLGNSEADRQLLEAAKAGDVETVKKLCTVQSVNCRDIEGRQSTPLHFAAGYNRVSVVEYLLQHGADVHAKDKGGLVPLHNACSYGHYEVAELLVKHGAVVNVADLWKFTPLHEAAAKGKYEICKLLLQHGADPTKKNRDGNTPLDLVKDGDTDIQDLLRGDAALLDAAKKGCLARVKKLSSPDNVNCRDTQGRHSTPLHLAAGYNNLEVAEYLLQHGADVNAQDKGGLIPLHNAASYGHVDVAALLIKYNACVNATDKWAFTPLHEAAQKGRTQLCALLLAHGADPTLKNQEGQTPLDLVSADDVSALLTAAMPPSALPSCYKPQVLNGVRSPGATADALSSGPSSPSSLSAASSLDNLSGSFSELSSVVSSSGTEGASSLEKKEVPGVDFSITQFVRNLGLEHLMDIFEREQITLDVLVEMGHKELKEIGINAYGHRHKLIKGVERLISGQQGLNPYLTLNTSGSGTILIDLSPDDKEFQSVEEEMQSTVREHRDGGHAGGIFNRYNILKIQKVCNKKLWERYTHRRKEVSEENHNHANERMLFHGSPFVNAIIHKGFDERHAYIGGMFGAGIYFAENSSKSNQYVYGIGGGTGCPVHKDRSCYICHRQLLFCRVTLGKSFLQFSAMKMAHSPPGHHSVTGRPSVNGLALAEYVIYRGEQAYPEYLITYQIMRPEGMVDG
Kind of assay: TNK2 Binding Assay (Tankyrase 2 ribosylation, chemiluminescence). It counts as biochemical.

The subject of another assay is new porcine skin. Kind of assay: Elasticity of healed wound. It counts as in vivo. Conditions: day 21; for Elasticity, Mean / Elasticity, individual values: topical. The procedure:
Additional tests were performed including elasticity (Table 12); max force (Table 13); tensile strength (strain) (Table 14); energy peak (Table 15); rete-ridge formation; and collagen organization (plane polarized light) (FIG. 24) of the healed wound sites, described as follows.
A is saline (control), B is serum formulation (vehicle), C is GO-HA (vehicle), D is Compound 1; E is Compound 1+GO-HA; F is Compound 8; G is Compound 8+GO-HA; H is Compound 10; and J is Compound 10+GO-HA.
Elasticity (N/mm) is the ability of a material to return to its original shape after stress has been removed. All compounds of Formula (I) tested with or without GO-HA ranged from 33% to 99% improvement in elasticity compared to the saline control.

The compound `O=c1[nH]c(-c2ccc(B(O)O)cc2)nc2c1CSCC2` [Compound 1, (4-(4-oxo-3,5,7,8-tetrahydro-4H-thiopyrano[4,3-d]pyrimidin-2-yl)phenyl)boronic acid] gave an IC50 on Tankyrase 2 (TNKS2) of 26 nM. For the same compound, in the assay on new porcine skin, the “Elasticity, Mean” value stood at 37.628 N/mm; the “Elasticity, individual values” is 39.593 N/mm and 27.299 N/mm and 33.002 N/mm and 50.617 N/mm.

As to `O=c1[nH]c(-c2ccc(-c3ccc(Br)nc3)cc2)nc2c1CSCC2` [Compound 7, 2-(4-(6-bromopyridin-3-yl)phenyl)-3,5,7,8-tetrahydro-4H-thiopyrano [4,3-d]pyrimidin-4-one], the IC50 on Tankyrase 2 (TNKS2) came to 5 nM.

At Tankyrase 2 (TNKS2), `CC(C)(OCCO)c1ccc(-c2nc3c(c(=O)[nH]2)CSCC3)cc1` [Compound 8, 2-(4-(2-(2-hydroxyethoxy)propan-2-yl)phenyl)-3,5,7,8-tetrahydro-4H-thiopyrano[4,3-d]pyrimidin-4-one] showed an IC50 of 3.16 nM. Further, in the assay with new porcine skin, the “Elasticity, Mean” value is 40.080 N/mm; the “Elasticity, individual values” is 47.748 N/mm and 22.23 N/mm and 55.607 N/mm and 46.485 N/mm and 28.331 N/mm.

Compound `O=c1[nH]c(-c2ccc(-c3ccc(B(O)O)cc3)cc2)nc2c1CSCC2` [Compound 10, (4′-(4-oxo-3,5,7,8-tetrahydro-4H-thiopyrano[4,3-d]pyrimidin-2-yl)-[1,1′-biphenyl]-4-yl)boronic acid] came in with an IC50 at Tankyrase 2 (TNKS2) of 3.29 nM. Further, in the assay with new porcine skin, the “improvement in elasticity compared to the saline control” value came out at 91%; the “Elasticity, Mean” value is listed as 53.682 N/mm; the “Elasticity, individual values” is 43.004 N/mm and 52.568 N/mm and 74.191 N/mm and 44.962 N/mm.

Turning to `COC(=O)NCCOC(C)(C)c1ccc(-c2nc3c(c(=O)[nH]2)CSCC3)cc1` [Compound 18, methyl (2-((2-(4-(4-oxo-3,5,7,8-tetrahydro-4H-thiopyrano[4,3-d]pyrimidin-2-yl)phenyl)propan-2-yl)oxy)ethyl)carbamate], the IC50 at Tankyrase 2 (TNKS2) stood at 4 nM. That is a single-digit nanomolar value.
